The values below come from patent publication US10208007B2, “Use of strigolactones and strigolactone analogs for treating proliferative conditions” (The State of Israel, Ministry of Agriculture & Rural …, priority 2011, dated 2019).

Several values for one entry are separate records, joined by “and”; a condition that tells them apart may be missing. Identical values can stand only once.

Common to all, as to assay type: cell-based, human
For assay [1], the system named is Cyclin B1 mRNA. The assay can be described thus: Quantitative Real-time PCR of Cyclin B1 mRNA. As to the method:
Primers were designed using PrimerQuest software (Integrated DNA Technologies). RNA was extracted using Trizol (Invitrogen, Carlsbad, Calif., USA) using the manufacturer's protocol. 1 μg RNA was reverse-transcribed in a total volume of 20 μl using the Superscript First strand cDNA synthesis kit (Invitrogen). PCR was performed in triplicate using an ABI-Prism 7900 instrument (Applied Biosystems, Foster City, Calif.) and SYBR Green I detection (Applied Biosystems) according to the manufacturer's protocol. The expression of each target gene was normalized to the expression of GAPDH RNA and is presented as the ratio of the target gene to GAPDH RNA, expressed as 2-ΔCt, where Ct is the threshold cycle and ΔCt=Ct Target−Ct GAPDH.
No change in cyclin B1 levels were detected at earlier time points. The dephosphorylation of Cdk1 (Cdc2) at Thr14 is a critical event for its activation, permitting mitotic entry. Cdk1 protein levels remained unaltered, as did pT14Cdc2 levels (FIG. 17B). Quantitative Real-time PCR was carried out to determine whether Cyclin B1 inhibition was partially at the transcriptional level.
(In qPCR the cycle at which signal appears reflects the starting amount.)

Assay [2] deals with HCT116 cells. Briefly: Annexin V / PI staining. To be noted: 48 hours, from 3.6%. As to the method:
Cells were cultured for 48 hours under the same conditions as those used for the DNA content/cell cycle analysis. All the cells were collected and resuspended in 100 μl 1× Annexin V Binding Buffer (BD Biosciences, San Jose, Calif., USA). 2 μl FITC-Annexin V (BD Biosciences) was added and incubated for 10 min in the dark (room temperature). Cells were then stained with PI (Sigma, Saint Louis, Mo., USA) to a final concentration of 5 μg/ml and the cells were incubated at room temperature for 15 min in the dark. Then, 400 μl of Annexin V binding buffer were added and flow cytometry was performed using a BD FACSCalibur flow cytometer. Cells were considered to be apoptotic if they were Annexin V+/PI− (early apoptotic) and Annexin V+/PI+ (late apoptotic). Each analysis was performed using at least 20,000 events.
Chromosome condensation at mitosis is accompanied by phosphorylation of histone H3. Accordingly, in order to determine if cells were arresting at G2 or M phase, HCT116 cells were analyzed for pS10 Histone H3 following strigolactone analogs exposure. […] To further quantify whether the growth inhibition observed in-vitro following strigolactone treatment was due in part to apoptosis, HCT116 cells were dual stained with Annexin V and PI (Prodidium Iodide). Annexin V staining indicate the inversion of the inner leaflet of the plasma membrane an early event of apoptosis. Late apoptosis is characterized by loss of membrane integrity and cells become permeable to PI. […] Cells were incubated for 48 hours and then co-stained with annexin-V and PI (FIG. 12F). Following treatment with 10 ppm and 15 ppm MEB-55, the percentage of late apoptotic cell increased from 3.6% to 62% and 85% respectively (FIG. 12F, lower panel). […] Dual Annexin V/PI staining analysis was also carried out on two other colon cancer cell lines, (SW480, HT29) following strigolactone treatment. Increased apoptosis was also observed in these lines following MEB-55 treatment in a dose dependent manner (FIG. 12D).

The test system of assay [3] is DU145. Briefly: Cell cycle analysis with strigolactone removal. To be noted: for G2/M fraction: 24 hours, from 18%; for G2/M fraction 48 hours following removal: vehicle control 28.5%. As to the method: Adherent cells were trypsinyzed, washed twice with PBS and filtered through a […] cell sieve. DNA content was assessed by flow cytometry. Cells were seeded at densities of 1.5×10^5 cells (MDA-MB-231, MDA-MB-436), or 4×10^5 cells (MCF-7 and MCF10A), or 2×10^5 cells (SW480, HT-29), or 5×10^5 cells (HCT116), per well in DMEM with 10% FBS in 6-well plate culture dishes. […] After 48 hours, cells were washed twice with PBS (pH 7.4), centrifuged at 360 g for 10 minutes at 4° C., and fixed in chilled ethanol (70%; v/v in PBS) with gentle vortex mixing. To determine their DNA contents, the cells were stained with 40 μg/ml propidium iodide (hereinafter PI) and analyzed using a FACSCalibur flow cytometer and CellQuest analysis software (Becton Dickinson, San Jose, Calif.). Where phosphoHistone-H3 staining was carried out, cells were incubated with polyclonal antibody against phosphoHistone H3 and then with secondary Goat anti-rabbit IgG-conjugated to FITC prior to PI staining.
To determine whether the strigolactone analogs induced G2 arrest, is also reversible upon strigolactone removal, DU145 cells were treated with MEB-55 for 24 hours, washed twice in PBS and then over-layed with fresh growth media minus MEB-55 and incubated for a further 48 hours (FIG. 17G).

In assay [4] the test system is MDA-MB-231 cells. The assay can be described thus: Hoechst 33342 staining. To be noted: 48 hours. As to the method: MDA-MB-231 cells were seeded out into 96 well plates in triplicate at 3000 cell per well. […] After 48 hours, the medium was aspirated off and 100 μl of Hoechst dye (2 μg/ml), diluted with the medium, was added to the cells and incubated for 15 minutes. Stained cells were observed under a fluorescence microscope (Zeiss 5 Instruments, Thornwood, N.Y.).

Assay [5] relates to MDA-MB-231 mammospheres. Briefly: Mammosphere formation. As to the method: Adherent cells were gently trypsinized, (0.05% trypsin/EDTA) washed twice in PBS and filtered through a […] cell sieve to obtain a single cell suspensions. Cells were diluted to a concentration of 10,000 cell/ml in serum-free phenol-red free MEBM (MEGM Bulletkit, Lonza) supplemented with 5 μg/ml bovine insulin, 20 ng/ml recombinant epidermal growth factor, 20 ng/ml basic fibroblast growth factor (Gibco), 1×B27 supplement, 0.5 μg/ml hydrocortisone (MEGM Bulletkit, Lonza). For MDA-MB-231 mammosphere cultures serum-free phenol red-free CnT-27 medium with growth additives (CellnTEC Advanced cell systems, Bern, Switzerland) was used as previously described. 0.1 ml was seeded per well of a Ultralow attachment 96 well plates. The following day the indicated doses of GR-24 (ppm) or vehicle alone (0.6% acetone f/c) were added. Media was replenished every 3-4 days. Self-renewal capacity of the mammospheres was determined by re-plating and producing further generations of mammospheres. Secondary mammospheres were cultivated by dissociation (trypsinization with gently vortexing) of 10-14 day old primary mammospheres. Single cell suspensions were obtained as described above.

For the molecule `CC1=CC(O/C=C2\Cc3c(n(C)c4cc(-c5cccs5)ccc34)C2=O)OC1=O` (racemic) [MEB-55, (±) 2E-4-methyl-2-(4-methyl-5-oxo-2,5-dihydrofuran-2-yloxymethylene)-6-thiophen-2-yl-1,4-dihydro-2H-cyclopenta[b]indol-3-one], the “Cyclin B1 mRNA compared to vehicle controls” value in assay [1] (A549, 10 ppm) is recorded as “two fold decrease”; in assay [1] (HCT116, 10 ppm) it was “two fold decrease”. For the same molecule, the “Percentage of late apoptotic cells (Annexin V+/PI+)” value in assay [2] (10 ppm) was 62%; in assay [2] (15 ppm) it was 85%. In addition, the G2/M fraction in assay [3] (DU145, 5 ppm) worked out at 46%; in assay [3] (DU145, 10 ppm), 50%. Also, the “G2/M fraction 48 hours following removal” value in assay [3] (DU145, 5 ppm) worked out at 29%; in assay [3] (DU145, 10 ppm) it was 29%.
With `CC1=CC(O/C=C2/C(=O)c3c(c4cc(-c5scc6c5OCCO6)ccc4n3C)C2C)OC1=O` (stereo not drawn) [ST-362, (2E)-2-[(2,5-dihydro-4-methyl-5-oxofuran-2-yloxy)methylene]-1,2-dihydro-7-(2,3-dihydrothieno[3,4-b][1,4]dioxin-7-yl)-1,4-dimethyl-cyclopenta[b]indole-3-(4H)-one], in assay [4], the “Concentrations resulting in increased nuclear condensation and fragmentation (indicative of apoptosis)” value is 10-15 ppm and 5-10 ppm.
Consider `CC1=C[C@H](O/C=C2/C(=O)O[C@@H]3c4ccccc4C[C@H]23)OC1=O` (relative stereo) [GR-24, (3aR*,8bS*,E)-3-(((R*)-4-methyl-5-oxo-2,5-dihydrofuran-2-yloxy)methylene)-3,3a,4,8b-tetrahydro-2H-indeno[1,2-b]furan-2-one], for which the Mammosphere growth result in assay [5] (2.5 ppm) was “severely attenuated”. Also, in assay [5] (5 ppm), the Mammosphere formation result is “completely blocked”. The “Concentration to block mammosphere formation, fold lower than IC50 dose for monolayer growth” value in assay [5] (MDA-MB-231) worked out at 2.7 fold.
